The record followed here is patent US12454534B2, “Pyrrolo[2,3-b]pyrazines as HPK1 inhibitor and the use thereof” (BEIGENE, LTD., priority 2019, dated 2025).

Molecules are shown by their SMILES. pIC50: −log10 of the molar value.

The target of this test is T1, HPK1 kinase (aa1-346, Life Technologies) (Homo sapiens, UniProt Q92918).
T1 construct: HPK1 kinase (aa1-346, Life Technologies); purchased Life Technologies
T1 sequence (Q92918 1-346): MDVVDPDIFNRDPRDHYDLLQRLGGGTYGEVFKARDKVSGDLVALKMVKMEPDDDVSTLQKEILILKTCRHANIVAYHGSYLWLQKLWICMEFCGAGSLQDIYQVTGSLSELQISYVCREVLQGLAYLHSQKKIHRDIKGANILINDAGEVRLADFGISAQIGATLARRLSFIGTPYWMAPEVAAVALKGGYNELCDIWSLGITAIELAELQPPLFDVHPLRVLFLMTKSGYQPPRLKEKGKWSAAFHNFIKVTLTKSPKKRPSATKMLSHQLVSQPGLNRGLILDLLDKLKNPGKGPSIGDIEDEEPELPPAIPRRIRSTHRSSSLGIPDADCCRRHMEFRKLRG
In words: HPK1 Kinase Activity Assay at 1 mM ATP (TR-FRET). The format is biochemical. The following applies: HPK1 40 nM, read-out: Enzymatic activity IC50. On the procedure: HPK1 Kinase Activity Assay at 1 mM ATP
Compounds disclosed herein were tested for inhibition of HPK1 kinase (aa1-346, Life Technologies) activity in assays based on the time-resolved fluorescence-resonance energy transfer (TR-FRET) methodology. The assays were carried out in 384-well low volume black plates in a reaction mixture containing HPK1 kinase (40 nM), 1 mM ATP, 0.5 μM STK1 substrate and 0-10 μM compound in buffer containing 50 mM HEPES, 0.01% BSA, 0.1 mM Orthovanadate, 10 mM MgCl2, 1 mM DTT, pH=7.0, 0.005% Tween-20. The kinase was incubated with the compounds disclosed herein or DMSO for 60 minutes at room temperature and the reaction was initiated by the addition of ATP and STK1 substrate. After reaction at room temperature for 120 minutes, an equal volume of stop/detection solution was added according to the manufacturer's instruction (CisBio). The stop/detection solution contained STK Antibody-Cryptate and XL665-conjugated streptavidin in Detection Buffer. The TR-FRET signals (ratio of fluorescence emission at 665 nm over emission at 620 nm with excitation at 337 nm wavelength) were recorded on a PHERAstar FS plate reader (BMG Labtech). Phosphorylation of STK1 substrate led to the binding of STK Antibody-Cryptate to the biotinylated STK1 substrate, which places fluorescent donor (Eu^3+ cryptate) in close proximity to the accepter (Streptavidin-XL665), thus resulting in a high degree of fluorescence resonance energy transfer. The inhibition of HPK1 in presence of increasing concentrations of compounds was calculated based on the ratio of fluorescence at 665 nm to that at 620 nm. The IC50 for each compound was derived from fitting the data to the four-parameter logistic equation by Graphpad Prism software.
Regarding `Cc1cc(-c2c[nH]c3ncc(-c4cc(C)c5c(c4)CN(CCC(=O)N[C@H]4CCC[C@H]4O)CC5)nc23)ccc1C(=O)N(C)C` [Example 54, 4-(2-(2-(3-(((1S, 2R)-2-hydroxycyclopentyl)amino)-3-oxopropyl)-5-methyl-1,2,3,4-tetrahydroisoquinolin-7-yl)-5H-pyrrolo[2,3-b]pyrazin-7-yl)-N, N, 2-trimethylbenzamide], the pIC50 was 7.17. Regarding `COc1cc(-c2cnc3[nH]cc(-c4ccc(C(=O)N(C)C)cc4)c3n2)cc2c1CN(CC(C)(C)O)CC2` [Example 58, 4-(2-(2-(2-hydroxy-2-methylpropyl)-8-methoxy-1,2,3,4-tetrahydroisoquinolin-6-yl)-5H-pyrrolo[2,3-b]pyrazin-7-yl)-N, N-dimethylbenzamide], the pIC50 is 7.68. Regarding `Cc1cc(-c2c[nH]c3ncc(-c4cc(C)c5c(c4)CN(CCC(=O)NCC4CC4)CC5)nc23)ccc1C(=O)N(C)C` [Example 55, 4-(2-(2-(3-((cyclopropylmethyl)amino)-3-oxopropyl)-5-methyl-1,2,3,4-tetrahydroisoquinolin-7-yl)-5H-pyrrolo[2,3-b]pyrazin-7-yl)-N, N, 2-trimethylbenzamide], the pIC50 was 7.05.

For `Cc1cc(-c2c[nH]c3ncc(-c4cc(C)c5c(c4)CN(C)CC5)nc23)ccc1C(=O)N(C)CC(C)(C)O` [Example 39, 4-(2-(2,5-dimethyl-1,2,3,4-tetrahydroisoquinolin-7-yl)-5H-pyrrolo[2,3-b]pyrazin-7-yl)-N-(2-hydroxy-2-methylpropyl)-N, 2-dimethylbenzamide], the pIC50 is 6.73. As for `Cc1cc(-c2c[nH]c3ncc(-c4cc(C)c5c(c4)CN(CCN4CCOCC4)CC5)nc23)ccc1C(=O)N(C)C[C@@H]1CCOC1` [Example 50, (S)—N, 2-dimethyl-4-(2-(5-methyl-2-(2-morpholinoethyl)-1,2,3,4-tetrahydroisoquinolin-7-yl)-5H-pyrrolo[2,3-b]pyrazin-7-yl)-N-((tetrahydrofuran-3-yl)methyl)benzamide], the figure is 6.86; as for `Cc1cc(-c2c[nH]c3ncc(-c4cc(C)c5c(c4)CN(CCC(=O)NC4CC4)CC5)nc23)ccc1C(=O)N(C)C` [Example 43, 4-(2-(2-(3-(cyclopropylamino)-3-oxopropyl)-5-methyl-1,2,3,4-tetrahydroisoquinolin-7-yl)-5H-pyrrolo[2,3-b]pyrazin-7-yl)-N, N, 2-trimethylbenzamide], 7.43; as for `Cc1cc(-c2c[nH]c3ncc(-c4cc(C)c5c(c4)CN(CCC(=O)N4CCN(C)CC4)CC5)nc23)ccc1C(=O)N(C)C` [Example 24, N, N, 2-trimethyl-4-(2-(5-methyl-2-(3-(4-methylpiperazin-1-yl)-3-oxopropyl)-1,2,3,4-tetrahydroisoquinolin-7-yl)-5H-pyrrolo[2,3-b]pyrazin-7-yl)benzamide], 7.12. Regarding `Cc1cc(-c2cnc3[nH]cc(-c4ccc(C(=O)N(C)C[C@@H](C)O)cc4)c3n2)cc2c1CCN(CCN1CCOCC1)C2` [Example 9, (R)—N-(2-hydroxypropyl)-N-methyl-4-(2-(5-methyl-2-(2-morpholinoethyl)-1,2,3,4-tetrahydroisoquinolin-7-yl)-5H-pyrrolo[2,3-b]pyrazin-7-yl)benzamide], the pIC50 was 7.21. Take `Cc1cc(-c2c[nH]c3ncc(-c4cc(C)c5c(c4)CN(C)CC5)nc23)ccc1C(=O)N(C)C[C@H](C)O` [Example 11, (S)-4-(2-(2,5-dimethyl-1,2,3,4-tetrahydroisoquinolin-7-yl)-5H-pyrrolo[2,3-b]pyrazin-7-yl)-N-(2-hydroxypropyl)-N, 2-dimethylbenzamide]: the pIC50 was 7.13. Take `COc1ccc(NC(=O)CCN2CCc3c(C)cc(-c4cnc5[nH]cc(-c6ccc(C(=O)N(C)C)c(C)c6)c5n4)cc3C2)cc1` [Example 27, 4-(2-(2-(3-(4-methoxyphenylamino)-3-oxopropyl)-5-methyl-1,2,3,4-tetrahydroisoquinolin-7-yl)-5H-pyrrolo[2,3-b]pyrazin-7-yl)-N, N, 2-trimethylbenzamide]: the negative logarithm of the IC50 (pIC50) was 7.59. As for `COc1cc(-c2cnc3[nH]cc(-c4ccc(C(=O)N(C)C)cc4)c3n2)cc2c1CN(C)CC2` [Example 22, 4-(2-(8-methoxy-2-methyl-1,2,3,4-tetrahydroisoquinolin-6-yl)-5H-pyrrolo[2,3-b]pyrazin-7-yl)-N, N-dimethylbenzamide], the figure is 7.96; as for `CC(=O)Nc1cc(-c2c[nH]c3ncc(-c4cc(C)c5c(c4)CN(C)CC5)nc23)ccc1C(=O)N(C)C` [Example 21, 2-acetamido-4-(2-(2,5-dimethyl-1,2,3,4-tetrahydroisoquinolin-7-yl)-5H-pyrrolo[2,3-b]pyrazin-7-yl)-N, N-dimethylbenzamide], 7.12; as for `COc1cc(-c2cnc3[nH]cc(-c4ccc(C(=O)N(C)C[C@H](C)O)c(C)c4)c3n2)cc2c1CCN(C)C2` [Example 12, (S)—N-(2-hydroxypropyl)-4-(2-(5-methoxy-2-methyl-1,2,3,4-tetrahydroisoquinolin-7-yl)-5H-pyrrolo[2,3-b]pyrazin-7-yl)-N, 2-dimethylbenzamide], 7.28. For the compound `Cc1cc(-c2c[nH]c3ncc(-c4cc(C)c5c(c4)CN(CCC(=O)NC[C@@H](C)O)CC5)nc23)ccc1C(=O)N(C)C` [Example 29, (R)-4-(2-(2-(3-(2-hydroxypropylamino)-3-oxopropyl)-5-methyl-1,2,3,4-tetrahydroisoquinolin-7-yl)-5H-pyrrolo[2,3-b]pyrazin-7-yl)-N, N, 2-trimethylbenzamide], the pIC50 is 7.34.

Regarding `Cc1cc(-c2cnc3[nH]cc(-c4ccc(C(=O)N(C)C)cc4)c3n2)cc2c1CCN(CCC(=O)N[C@H]1CC[C@H](O)CC1)C2` [Example 48, 4-(2-(2-(3-(((1r, 4r)-4-hydroxycyclohexyl)amino)-3-oxopropyl)-5-methyl-1,2,3,4-tetrahydroisoquinolin-7-yl)-5H-pyrrolo[2,3-b]pyrazin-7-yl)-N, N-dimethylbenzamide], the negative-log IC50 (pIC50) is 7.19. In the case of `Cc1cc(-c2c[nH]c3ncc(-c4cc(C)c5c(c4)CN(CCC(=O)N[C@H]4CC[C@H](O)C4)CC5)nc23)ccc1C(=O)N(C)C` [Example 56, 4-(2-(2-(3-(((1S, 3S)-3-hydroxycyclopentyl)amino)-3-oxopropyl)-5-methyl-1,2,3,4-tetrahydroisoquinolin-7-yl)-5H-pyrrolo[2,3-b]pyrazin-7-yl)-N, N, 2-trimethylbenzamide], the negative-log IC50 (pIC50) is 7.03. Regarding `Cc1cc(-c2cnc3[nH]cc(-c4ccc(C(=O)N(C)C)cc4)c3n2)cc2c1CCN(CCN1CCC(C)(O)CC1)C2` [Example 37, 4-(2-(2-(2-(4-hydroxy-4-methylpiperidin-1-yl)ethyl)-5-methyl-1,2,3,4-tetrahydroisoquinolin-7-yl)-5H-pyrrolo[2,3-b]pyrazin-7-yl)-N, N-dimethylbenzamide], the pIC50 is 7.46. As for `COCCCNC(=O)CCN1CCc2c(C)cc(-c3cnc4[nH]cc(-c5ccc(C(=O)N(C)C)c(C)c5)c4n3)cc2C1` [Example 44, 4-(2-(2-(3-((3-methoxypropyl)amino)-3-oxopropyl)-5-methyl-1,2,3,4-tetrahydroisoquinolin-7-yl)-5H-pyrrolo[2,3-b]pyrazin-7-yl)-N, N, 2-trimethylbenzamide], the figure is 7.09; as for `Cc1cc(-c2cnc3[nH]cc(-c4ccc(C(=O)N5CC6(COC6)C5)cc4)c3n2)cc2c1CCN(C)C2` [Example 19, (4-(2-(2,5-dimethyl-1,2,3,4-tetrahydroisoquinolin-7-yl)-5H-pyrrolo[2,3-b]pyrazin-7-yl)phenyl) (2-oxa-6-azaspiro[3.3]heptan-6-yl)methanone], 7.89; as for `Cc1cc(-c2c[nH]c3ncc(-c4cc(C)c5c(c4)CN(CCC(=O)NCC(C)(C)O)CC5)nc23)ccc1C(=O)N(C)C` [Example 33, 4-(2-(2-(3-(2-hydroxy-2-methylpropylamino)-3-oxopropyl)-5-methyl-1,2,3,4-tetrahydroisoquinolin-7-yl)-5H-pyrrolo[2,3-b]pyrazin-7-yl)-N, N, 2-trimethylbenzamide], 7.31.

`Cc1cc(-c2c[nH]c3ncc(-c4cc(C)c5c(c4)CN(CCC(=O)NC[C@H](C)O)CC5)nc23)ccc1C(=O)N(C)C` [Example 30, (S)-4-(2-(2-(3-(2-hydroxypropylamino)-3-oxopropyl)-5-methyl-1,2,3,4-tetrahydroisoquinolin-7-yl)-5H-pyrrolo[2,3-b]pyrazin-7-yl)-N, N, 2-trimethylbenzamide]: the negative-log IC50 (pIC50) is 7.20.

As a reminder, the pIC50 is the negative decadic logarithm of the IC50, by convention in mol/L.
